Numbers after ± are expanded uncertainties.
Experiment: mn = molality of the nth substance listed, in mol/kg
Details: Liquid; for electrical conductivity: Frequency=0.0003 MHz, Alternating current cell with electrodes; for viscosity: Falling or rolling sphere viscometry; for mass density: Vibrating tube method

C[C@H](N)C(=O)O [(S)-2-aminopropanoic acid] + O
Details | electrical conductivity, m1 = 0.1 [S/m] | electrical conductivity, m1 = 0.3 [S/m] | electrical conductivity, m1 = 0.5 [S/m] | mass density, m1 = 0.1 [kg/m3] | mass density, m1 = 0.3 [kg/m3] | mass density, m1 = 0.5 [kg/m3] | viscosity, m1 = 0.1 [mPa·s] | viscosity, m1 = 0.3 [mPa·s] | viscosity, m1 = 0.5 [mPa·s]
288.15 K, 87 kPa | 0.000237 ± 0.00014 | 0.000567 ± 0.00014 | 0.000861 ± 0.00014 | – | – | – | – | – | –
288.15 K, 100 kPa | – | – | – | 1002.1 ± 1.4 | 1007.7 ± 1.4 | 1013.3 ± 1.4 | 1.16 ± 0.031 | 1.223 ± 0.031 | 1.286 ± 0.031
298.15 K, 87 kPa | 0.000293 ± 0.00014 | 0.000659 ± 0.00014 | 0.000968 ± 0.00014 | – | – | – | – | – | –
298.15 K, 100 kPa | – | – | – | 999.97 ± 1.4 | 1005.51 ± 1.4 | 1011.05 ± 1.4 | 0.91 ± 0.031 | 0.955 ± 0.031 | 1.001 ± 0.031
308.15 K, 87 kPa | 0.000357 ± 0.00014 | 0.000783 ± 0.00014 | 0.00117 ± 0.00014 | – | – | – | – | – | –
308.15 K, 100 kPa | – | – | – | 996.94 ± 1.4 | 1002.42 ± 1.4 | 1007.9 ± 1.4 | 0.738 ± 0.03 | 0.774 ± 0.031 | 0.809 ± 0.031
318.15 K, 87 kPa | 0.000441 ± 0.00014 | 0.000946 ± 0.00014 | 0.00141 ± 0.00014 | – | – | – | – | – | –
318.15 K, 100 kPa | – | – | – | 993.09 ± 1.4 | 998.47 ± 1.4 | 1003.85 ± 1.4 | 0.613 ± 0.03 | 0.649 ± 0.031 | 0.685 ± 0.03

NCC(=O)O [2-aminoacetic acid] + O
87 kPa
Details | electrical conductivity, m1 = 0.1 [S/m] | electrical conductivity, m1 = 0.3 [S/m] | electrical conductivity, m1 = 0.5 [S/m] | mass density, m1 = 0.1 [kg/m3] | mass density, m1 = 0.3 [kg/m3] | mass density, m1 = 0.5 [kg/m3] | viscosity, m1 = 0.1 [mPa·s] | viscosity, m1 = 0.3 [mPa·s] | viscosity, m1 = 0.5 [mPa·s]
288.15 K | 0.000925 ± 0.00014 | 0.00227 ± 0.00014 | 0.00355 ± 0.00014 | 1002.42 ± 1.4 | 1008.66 ± 1.4 | 1014.9 ± 1.4 | 1.144 ± 0.031 | 1.176 ± 0.031 | 1.208 ± 0.031
298.15 K | 0.000963 ± 0.00014 | 0.00239 ± 0.00014 | 0.00381 ± 0.00014 | 1000.23 ± 1.4 | 1006.29 ± 1.4 | 1012.35 ± 1.4 | 0.924 ± 0.031 | 0.95 ± 0.031 | 0.984 ± 0.031
308.15 K | 0.00101 ± 0.00014 | 0.00253 ± 0.00014 | 0.0041 ± 0.00014 | – | 1003.23 ± 1.4 | 1009.25 ± 1.4 | 0.729 ± 0.03 | 0.749 ± 0.03 | 0.77 ± 0.031
318.15 K | 0.00106 ± 0.00014 | 0.00269 ± 0.00014 | 0.00445 ± 0.00014 | 993.28 ± 1.4 | 999.24 ± 1.4 | 1005.2 ± 1.4 | 0.613 ± 0.03 | 0.638 ± 0.03 | 0.662 ± 0.03

From the NIST ThermoML archive (doi:10.1016/j.jct.2016.07.047)
